Values joined by “and” are separate entries in the source; they are usually repeats but may differ in a detail not shown here. Identical values can stand only once.
Biological target: MAPK14 (human) (UniProt Q16539)
Assay: Inhibition of MAPK14 Kinase Activity
Conditions: THP.1 monocytic

Chain of MAPK14 (human) (Q16539 whole entry, looked up): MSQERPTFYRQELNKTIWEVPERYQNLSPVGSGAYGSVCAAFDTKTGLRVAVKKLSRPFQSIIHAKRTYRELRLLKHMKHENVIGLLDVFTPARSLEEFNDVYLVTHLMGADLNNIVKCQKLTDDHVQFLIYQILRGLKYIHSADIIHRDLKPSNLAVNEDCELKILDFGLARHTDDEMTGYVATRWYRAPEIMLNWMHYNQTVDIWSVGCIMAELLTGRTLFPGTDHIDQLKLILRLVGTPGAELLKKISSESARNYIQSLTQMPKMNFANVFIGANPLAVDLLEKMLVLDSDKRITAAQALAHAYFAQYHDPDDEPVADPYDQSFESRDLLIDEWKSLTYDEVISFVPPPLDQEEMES

## CNCc1cnc(Cn2c(C)cc(OCc3ccc(F)cc3F)c(Br)c2=O)cn1
  IC50: 1000 to 25000 nM

## Cc1cc(OCc2ccc(F)cc2F)c(Br)c(=O)n1Cc1cccc(CNC(=O)CO)c1
  IC50: < 1000 nM

## Cc1cc(OCc2ccc(F)cc2F)c(Br)c(=O)n1-c1ccc(C(=O)NCCCN)cc1
  IC50: < 1000 nM

## O=c1c(I)c(OCc2ccccc2)ccn1Cc1ccccc1
  IC50: 1000 to 25000 nM

## O=c1c(Br)c(NCc2ccccc2)ccn1Cc1cccc(F)c1
  IC50: 1000 to 25000 nM

## CNC(=O)c1ccc(C)c(-n2c(C)cc(OCc3ccc(F)cc3CNC(=O)OC)c(Br)c2=O)c1
  IC50: < 1000 nM

## Cc1cc(OCc2ccc(F)cc2F)c(Br)c(=O)n1-c1cccc(C(=O)NCCN)c1
  IC50: < 1000 nM

## CNC(=O)c1ccc(-n2c(C)cc(OCc3ccc(F)cc3F)c(Br)c2=O)cc1
  IC50: > 100000 nM

## Cc1cc(OCc2ccc(F)cc2F)c(Br)c(=O)n1-c1cccc(C(=O)N(C)C)c1
  IC50: < 1000 nM

## CNC(=O)c1ccc(OC)c(-n2c(C)cc(OCc3ccc(F)cc3F)c(Br)c2=O)c1
  IC50: < 1000 nM

## Cc1cc(NCc2ccc(F)cc2F)c(Cl)c(=O)n1Cc1cccc(C#N)c1
  IC50: < 1000 nM

## Cc1cc(OCc2ccc(F)cc2F)c(Br)c(=O)n1CC1CC1
  IC50: < 1000 nM

## O=c1c(Br)c(OCc2ccccc2)ccn1Cc1ccccc1C(F)(F)F
  IC50: > 100000 nM

## COC(=O)c1ccc(-n2c(C)cc(OCc3ccc(F)cc3F)c(Br)c2=O)c(Cl)c1
  IC50: < 1000 nM

## N#Cc1ccc(Cn2ccc(OCc3ccccc3)c(Br)c2=O)cc1
  IC50: < 1000 nM

## O=C(Nc1ccn(Cc2cccc(F)c2)c(=O)c1Br)c1ccc(F)cc1
  IC50: 1000 to 25000 nM

## Cc1cc(OCc2ccc(F)cc2F)c(Br)c(=O)n1-c1ccc(C(C)(C)O)cn1
  IC50: > 100000 nM

## Cc1cc(OCc2ccc(F)cc2F)c(Br)c(=O)n1Cc1cccc(CN2CCCCC2)c1
  IC50: < 1000 nM

## O=c1c(Br)c(OCc2ccc(F)cc2F)cc(CO)n1-c1c(F)cc(F)cc1F
  IC50: < 1000 nM

## COc1ccc(C(=O)N(C)C)cc1-n1c(C)cc(OCc2ccc(F)cc2F)c(Br)c1=O
  IC50: < 1000 nM

## O=c1c(Cl)c(OCc2ccc(F)cc2F)cc(CO)n1-c1c(F)cccc1F
  IC50: < 1000 nM

## Cc1cc(OCc2ccc(F)cc2F)c(Br)c(=O)n1Cc1ccc(C(=O)N(C)C)cc1
  IC50: < 1000 nM

## COC(=O)NCc1cccc(-n2c(C)cc(OCc3ccc(F)cc3F)c(Br)c2=O)c1
  IC50: 1000 to 25000 nM

## Cc1cc(OCc2ccc(F)cc2F)c(Br)c(=O)n1Cc1ccc(C(=O)N(C)CCO)cc1
  IC50: < 1000 nM

## Cc1cc(OCc2ccc(F)cc2F)c(Br)c(=O)n1-c1cccc(CN)c1
  IC50: 1000 to 25000 nM

## Cc1c(Br)c(OCc2ccccc2)c(Br)c(=O)n1Cc1ccccc1
  IC50: 25000 to 100000 nM

## Cc1cc(OCc2ccccc2)cc(=O)n1Cc1ccccc1
  IC50: 25000 to 100000 nM

## COC(=O)NCc1cccc(Cn2c(C)cc(OCc3ccc(F)cc3F)c(Br)c2=O)c1
  IC50: < 1000 nM

## Cc1cnc(Cn2c(C)cc(OCc3ccc(F)cc3F)c(Cl)c2=O)cn1
  IC50: < 1000 nM

## Cc1cc(OCc2ccc(F)cc2F)c(Br)c(=O)n1Cc1ccc(C(=O)N(CCO)CCO)cc1
  IC50: < 1000 nM

## CCn1ccc(OCc2ccccc2)c(Br)c1=O
  IC50: 1000 to 25000 nM

## Cn1ccc(OCc2ccccc2)c(Br)c1=O
  IC50: 1000 to 25000 nM

## O=C(c1ccc(-n2ccc(OCc3ccccc3)c(Br)c2=O)cc1)N1CCOCC1
  IC50: 1000 to 25000 nM

## Cc1cc(NCc2ccc(F)cc2)c(Br)c(=O)n1Cc1ccc(F)cc1
  IC50: < 1000 nM

## Cc1cc(OCc2ccc(F)cc2F)c(Br)c(=O)n1Cc1ccnc(CN)n1
  IC50: 1000 to 25000 nM

## Cc1ccc(C(=O)NCCO)cc1-n1c(C)cc(OCc2ccc(F)cc2F)c(Br)c1=O
  IC50: < 1000 nM

## COCC(=O)NCc1cccc(-n2c(C)cc(OCc3ccc(F)cc3F)c(Br)c2=O)c1
  IC50: 1000 to 25000 nM

## Cc1ccc(CO)cc1-n1c(C)cc(OCc2ccc(F)cc2F)c(Br)c1=O
  IC50: < 1000 nM

## Cc1cc(OCc2ccc(F)cc2F)c(Cl)c(=O)n1-c1cccc(C(N)=O)c1
  IC50: < 1000 nM

## Cc1cc(OCc2ccc(F)cc2F)c(Cl)c(=O)n1-c1cc(CO)ccc1Cl
  IC50: < 1000 nM

## Cc1cc(OCc2ccc(F)cc2F)c(Br)c(=O)n1-c1c(F)cc(N2CCN(C)CC2)cc1F
  IC50: < 1000 nM

## CCOC(=O)CCn1ccc(OCc2ccccc2)c(Br)c1=O
  IC50: 1000 to 25000 nM

## Cc1cc(OCc2ccc(F)cc2F)c(Br)c(=O)n1-c1cccc(C(=O)NCCCN)c1
  IC50: < 1000 nM

## Cc1cc(OCc2ccc(F)cc2F)c(Br)c(=O)n1-c1cccc(CNC(N)=O)c1
  IC50: 1000 to 25000 nM

## O=c1c(Br)c(CCc2ccccc2)ccn1Cc1ccccc1
  IC50: 1000 to 25000 nM

## Cc1cccc(C)c1-n1c(C)cc(OCc2ccc(F)cc2F)c(Br)c1=O
  IC50: < 1000 nM

## O=c1cc(OCc2ccccc2Cl)ccn1Cc1ccccc1
  IC50: 25000 to 100000 nM

## Cc1cc(OCc2ccc(F)cc2F)c(Br)c(=O)n1Cc1cccc(C(=O)O)c1
  IC50: 1000 to 25000 nM

## Cc1ccc(C(C)(C)O)cc1-n1c(C)cc(OCc2ccc(F)cc2F)c(Br)c1=O
  IC50: < 1000 nM

## Cc1cc(OCc2ccc(F)cc2F)c(Br)c(=O)n1Cc1cnc(C(C)(C)O)cn1
  IC50: 1000 to 25000 nM

## Cc1cc(OCc2ccc(F)cc2F)c(Br)c(=O)n1-c1c(F)cc(F)cc1F
  IC50: < 1000 nM

## CNC(=O)c1ccc(C)c(-n2c(C)cc(OCc3ccc(F)cc3F)c(Cl)c2=O)c1
  IC50: < 1000 nM

## Cc1cc(OCc2ccc(F)cc2F)c(Br)c(=O)n1Cc1cnc(C(=O)N(C)C)cn1
  IC50: < 1000 nM

## O=Cc1cc(OCc2ccc(F)cc2F)c(Br)c(=O)n1-c1c(F)cccc1F
  IC50: < 1000 nM

## Cc1c(C#N)c(OCc2ccc(F)cc2F)c(Br)c(=O)n1-c1c(F)cccc1F
  IC50: 25000 to 100000 nM

## Cc1cc(OCc2ccc(F)cc2F)c(Br)c(=O)n1Cc1ccc(C(=O)NO)cc1
  IC50: < 1000 nM and 1000 to 25000 nM

## Cc1cc(OCc2ccc(F)cc2F)c(Br)c(=O)n1-c1ccc(C(=O)NCCN)cc1
  IC50: < 1000 nM

## Cc1cc(OCc2ccc(F)cc2F)c(Br)c(=O)n1CCN1CCOCC1
  IC50: 25000 to 100000 nM

## Cc1cc(OCc2ccc(F)cc2F)c(Cl)c(=O)n1-c1cc(CN)ccc1F
  IC50: < 1000 nM

## O=C(O)c1cc(OCc2ccc(F)cc2F)c(Br)c(=O)n1-c1c(F)cccc1F
  IC50: 1000 to 25000 nM

## Cc1cc(OCc2ccc(F)cc2F)c(Cl)c(=O)n1-c1cccc(CO)c1
  IC50: 1000 to 25000 nM

## C=CCNc1cc(C)n(-c2c(F)cccc2F)c(=O)c1Br
  IC50: 1000 to 25000 nM

## Cc1cc(OCc2ccc(F)cc2F)c(Br)c(=O)n1Cc1cccc(CNC(N)=O)c1
  IC50: 1000 to 25000 nM

## CNC(=O)c1cnc(Cn2c(C)cc(OCc3ccc(F)cc3F)c(Br)c2=O)cn1
  IC50: 1000 to 25000 nM

## Cc1cc(OCc2ccc(F)cc2F)c(Br)c(=O)n1Cc1ccc(C(=O)NC(C)C)cc1
  IC50: < 1000 nM

## Cc1cc(OCc2ccc(F)cc2F)c(Br)c(=O)n1-c1ccc2cn[nH]c2c1
  IC50: < 1000 nM

## CC(=O)NCc1cccc(Cn2c(C)cc(OCc3ccc(F)cc3F)c(Br)c2=O)c1
  IC50: < 1000 nM

## O=c1c(C(F)(F)F)c(OCc2ccccc2)ccn1Cc1cccc(F)c1
  IC50: 25000 to 100000 nM

## C#Cc1c(OCc2ccccc2)ccn(Cc2cccc(F)c2)c1=O
  IC50: 1000 to 25000 nM

## Cc1cccc(C)c1-n1c(C)cc(OCc2c(F)cc(F)cc2F)c(Br)c1=O
  IC50: < 1000 nM

## Cc1cccc(COc2ccn(Cc3cccc(F)c3)c(=O)c2Br)c1
  IC50: < 1000 nM

## O=c1c(Br)c(OCc2ccccc2)c(Br)cn1Cc1ccccc1
  IC50: > 100000 nM

## CNC(=O)NCc1cccc(-n2c(C)cc(OCc3ccc(F)cc3F)c(Br)c2=O)c1
  IC50: 1000 to 25000 nM

## Cc1cc(OCc2ccc(F)cc2F)c(Br)c(=O)n1-c1ccc(C(=O)NO)cc1
  IC50: > 100000 nM

## Cc1cc(OCc2ccc(F)cc2F)c(Br)c(=O)n1-c1cc(C(N)=O)ccc1F
  IC50: < 1000 nM

## Cc1cc(OCc2ccc(F)cc2F)c(Br)c(=O)n1-c1c(F)cc(N2CCOCC2)cc1F
  IC50: < 1000 nM
